# Patent publication US20150246093A1, “ORAL FORMULATIONS OF ANGIOTENSIN” (TARIX PHARMACEUTICALS LTD., priority 2012, published 2015)
# Like-named read-outs stand apart in the source and are kept apart here.
# Test: Pharmacokinetics after intra-duodenal injection (ID) in anesthetized rats, model mimicking enteric-coated oral dosage form, plasma LC-MS
# Type: in vivo, rat
# Conditions: rat, plasma; for Tmax / AUC(0-t) / Cmax / Half-Life: other: intra-duodenal injection (ID); for AUC(0-t): read-out: AUC0-90 (converted); for Cmax: read-out: Cmax; for level at 5 min: time point 5 min; for level at 5 min / level at 10 min / level at 20 min / level at 40 min / level at 1 h / level at 1.5 h: Average, read-out: Angiotensin (1-7) concentration; for level at 10 min: time point 10 min; for level at 20 min: time point 20 min; for level at 40 min: time point 40 min; for level at 1 h: time point 60 min; for level at 1.5 h: time point 90 min
# Protocol: This model mimics the release and absorption expected from an orally delivered enteric coated solid dosage form such as capsule or tablet.
# After extraction, the samples were then transferred to ice-cold tubes containing a protease inhibitor cocktail. The samples were kept on ice until they were centrifuged at 4° C. to obtain plasma. The plasma supernatants were then frozen −70° C. until analysis using an LC-MS assay.
# The oral delivery of an angiotensin (1-7) peptide (e.g., TXA127) was then evaluated in a rat model that mimics the release of the peptide into the intestine by enteric-coated capsule. Briefly, the duodenums of anesthetized rats were surgically exposed, and an angiotensin (1-7) peptide was delivered through a 27 gauge needle into the duodenum. A baseline was obtained by ID administration of an angiotensin (1-7) in PBS. Samples of blood was removed from the carotid artery before and 5, 10, 20, 40, 60 and 90 minutes after peptide administration. Subsequently, an angiotensin (1-7) peptide was administered ID in 400 mM citrate buffer (pH 3.5) and lauroyl-L-carnitine (LLC) (10 mg/ml), a formulation that mimics the contents of the enteric-coated capsules. In order to maximize the stability of TXA127 in rat circulation, captopril (e.g., 0.5 mg/ml or 5 mg/ml) may be added to the formulations. Blood samples were taken at the same time points as the baseline study and handled as described above for analysis.
# [1] = 3 mg, ID 0.3 ml A [10 mg/ml in PBS], Mean PK Values (average of individual PK parameters)
# [2] = 3 mg, pH 3.5, ID 0.3 ml B [10 mg/ml, 10 mg/ml LLC, 400 mM Citrate pH 3.5, 150 mM NaCl], Average (PK value of the mean concentrations)
# [3] = 3 mg, pH 3.5, ID 0.3 ml B [10 mg/ml, 10 mg/ml LLC, 400 mM Citrate pH 3.5, 150 mM NaCl], Mean PK Values (average of individual PK parameters)
# [4] = 3 mg, pH 3.5, ID 0.3 ml C [10 mg/ml, Captopril 0.5 mg/ml, 10 mg/ml LLC, 400 mM Citrate pH 3.5, 150 mM NaCl], Average (PK value of the mean concentrations)
# [5] = 3 mg, pH 3.5, ID 0.3 ml C [10 mg/ml, Captopril 0.5 mg/ml, 10 mg/ml LLC, 400 mM Citrate pH 3.5, 150 mM NaCl], Mean PK Values (average of individual PK parameters)
# [6] = 3 mg, pH 3.5, ID 0.3 ml C [10 mg/ml, Captopril 5 mg/ml, 10 mg/ml LLC, 400 mM Citrate pH 3.5, 150 mM NaCl], Average (PK value of the mean concentrations)
# [7] = 3 mg, pH 3.5, ID 0.3 ml C [10 mg/ml, Captopril 5 mg/ml, 10 mg/ml LLC, 400 mM Citrate pH 3.5, 150 mM NaCl], Mean PK Value (average of individual PK parameters)
# [8] = pH 3.5, ID 0.3 ml C [10 mg/ml, Captopril 0.5 mg/ml, 10 mg/ml LLC, 400 mM Citrate pH 3.5, 150 mM NaCl]
# [9] = pH 3.5, ID 0.3 ml C [10 mg/ml, Captopril 5 mg/ml, 10 mg/ml LLC, 400 mM Citrate pH 3.5, 150 mM NaCl]
compound,measurement,setting,value
"CC[C@H](C)[C@H](NC(=O)[C@H](Cc1ccc(O)cc1)NC(=O)[C@@H](NC(=O)[C@H](CCCNC(=N)N)NC(=O)[C@@H](N)CC(=O)O)C(C)C)C(=O)N[C@@H](Cc1c[nH]cn1)C(=O)N1CCC[C@H]1C(=O)O [Angiotensin (1-7), Asp^1-Arg^2-Val^3-Tyr^4-Ile^5-His^6-Pro^7]",Tmax,"3 mg, ID 0.3 ml A [10 mg/ml in PBS], Average (PK value of the mean concentrations), read-out: Tmax (converted)",60 min
same,AUC(0-t),[1],6.72 ng·h/mL
same,Cmax,[1],7.5 ng/mL
same,Half-Life,"3 mg, ID 0.3 ml A [10 mg/ml in PBS], Mean PK Values (average of individual PK parameters), read-out: Half-Life",38.9 min
same,Tmax,"3 mg, ID 0.3 ml A [10 mg/ml in PBS], Mean PK Values (average of individual PK parameters), read-out: Tmax (converted)",46 min
same,Half-Life,"3 mg, ID, 0.3 mL of 10 mg/mL A(1-7) formulated in PBS, 6 rats, range over the group, read-out: Half-lives",7 to 140 min
same,Tmax,"3 mg, ID, 0.3 mL of 10 mg/mL A(1-7) formulated in PBS, 6 rats, range over the group, read-out: Tmax after administration",10 to 60 min
same,AUC(0-t),[2],71.2 ng·h/mL
same,Cmax,[2],416 ng/mL
same,Half-Life,"3 mg, pH 3.5, ID 0.3 ml B [10 mg/ml, 10 mg/ml LLC, 400 mM Citrate pH 3.5, 150 mM NaCl], Average (PK value of the mean concentrations), read-out: Half-Life",13 min
same,Tmax,"3 mg, pH 3.5, ID 0.3 ml B [10 mg/ml, 10 mg/ml LLC, 400 mM Citrate pH 3.5, 150 mM NaCl], Average (PK value of the mean concentrations), read-out: Tmax (converted)",5 min
same,AUC(0-t),[3],71.2 ng·h/mL
same,Cmax,[3],419 ng/mL
same,Half-Life,"3 mg, pH 3.5, ID 0.3 ml B [10 mg/ml, 10 mg/ml LLC, 400 mM Citrate pH 3.5, 150 mM NaCl], Mean PK Values (average of individual PK parameters), read-out: Half-Life",46.4 min
same,Tmax,"3 mg, pH 3.5, ID 0.3 ml B [10 mg/ml, 10 mg/ml LLC, 400 mM Citrate pH 3.5, 150 mM NaCl], Mean PK Values (average of individual PK parameters), read-out: Tmax (converted)",5.8 min
same,Tmax,"3 mg, pH 3.5, ID 0.3 ml B [10 mg/ml, 10 mg/ml LLC, 400 mM Citrate pH 3.5, 150 mM NaCl], individual rats, read-out: Tmax (converted)",5 min
same,AUC(0-t),[4],126 ng·h/mL
same,Cmax,[4],628 ng/mL
same,Half-Life,"3 mg, pH 3.5, ID 0.3 ml C [10 mg/ml, Captopril 0.5 mg/ml, 10 mg/ml LLC, 400 mM Citrate pH 3.5, 150 mM NaCl], Average (PK value of the mean concentrations), read-out: Half-Life",14 min
same,Tmax,"3 mg, pH 3.5, ID 0.3 ml C [10 mg/ml, Captopril 0.5 mg/ml, 10 mg/ml LLC, 400 mM Citrate pH 3.5, 150 mM NaCl], Average (PK value of the mean concentrations), read-out: Tmax (converted)",5 min
same,AUC(0-t),[5],119 ng·h/mL
same,Cmax,[5],609 ng/mL
same,Half-Life,"3 mg, pH 3.5, ID 0.3 ml C [10 mg/ml, Captopril 0.5 mg/ml, 10 mg/ml LLC, 400 mM Citrate pH 3.5, 150 mM NaCl], Mean PK Values (average of individual PK parameters), read-out: Half-Life",19.4 min
same,Tmax,"3 mg, pH 3.5, ID 0.3 ml C [10 mg/ml, Captopril 0.5 mg/ml, 10 mg/ml LLC, 400 mM Citrate pH 3.5, 150 mM NaCl], Mean PK Values (average of individual PK parameters), read-out: Tmax (converted)",7.1 min
same,Tmax,"3 mg, pH 3.5, ID 0.3 ml C [10 mg/ml, Captopril 0.5 mg/ml, 10 mg/ml LLC, 400 mM Citrate pH 3.5, 150 mM NaCl], individual rats, read-out: Tmax (converted)",5 min
same,AUC(0-t),[6],157 ng·h/mL
same,Cmax,[6],619 ng/mL
same,Half-Life,"3 mg, pH 3.5, ID 0.3 ml C [10 mg/ml, Captopril 5 mg/ml, 10 mg/ml LLC, 400 mM Citrate pH 3.5, 150 mM NaCl], Average (PK value of the mean concentrations), read-out: Half-Life",13 min
same,Tmax,"3 mg, pH 3.5, ID 0.3 ml C [10 mg/ml, Captopril 5 mg/ml, 10 mg/ml LLC, 400 mM Citrate pH 3.5, 150 mM NaCl], Average (PK value of the mean concentrations), read-out: Tmax (converted)",5 min
same,AUC(0-t),[7],156 ng·h/mL
same,Cmax,[7],640 ng/mL
same,Half-Life,"3 mg, pH 3.5, ID 0.3 ml C [10 mg/ml, Captopril 5 mg/ml, 10 mg/ml LLC, 400 mM Citrate pH 3.5, 150 mM NaCl], Mean PK Value (average of individual PK parameters), read-out: Half-Life",14.1 min
same,Tmax,"3 mg, pH 3.5, ID 0.3 ml C [10 mg/ml, Captopril 5 mg/ml, 10 mg/ml LLC, 400 mM Citrate pH 3.5, 150 mM NaCl], Mean PK Value (average of individual PK parameters), read-out: Tmax (converted)",5.8 min
same,Tmax,"3 mg, pH 3.5, ID 0.3 ml C [10 mg/ml, Captopril 5 mg/ml, 10 mg/ml LLC, 400 mM Citrate pH 3.5, 150 mM NaCl], individual rats, read-out: Tmax (converted)",5 min
same,Half-Life,"3 mg, pH 3.5, ID, 0.3 mL of 10 mg/mL A(1-7) with 10 mg/mL LLC, 400 mM Citrate, 150 mM NaCl pH 3.5, range over the group, read-out: Half-lives",9.3 to 173 min
same,Tmax,"3 mg, pH 3.5, ID, 0.3 mL of 10 mg/mL A(1-7) with 10 mg/mL LLC, 400 mM Citrate, 150 mM NaCl pH 3.5, range over the group, read-out: Tmax after administration",5 to 10 min
same,Half-Life,"pH 3.5, ID, 0.3 mL of 10 mg/mL A(1-7) with 0.5 mg/mL captopril, 10 mg/mL LLC, 400 mM Citrate, 150 mM NaCl pH 3.5, seven rats (Table 4), range over the group, read-out: Half-lives",11.9 to 29.1 min
same,Half-Life,"ID, 0.3 mL of 10 mg/mL A(1-7) with 0.5 mg/mL captopril (as printed in the text on Table 5), 10 mg/mL LLC, 400 mM Citrate, 150 mM NaCl pH 3.5, six rats, range over the group, read-out: Half-lives",7.97 to 25.6 min
same,Tmax,"ID, 0.3 mL of 10 mg/mL A(1-7) with 0.5 mg/mL captopril, 10 mg/mL LLC, 400 mM Citrate, 150 mM NaCl pH 3.5, seven rats (Table 4), range over the group, read-out: Tmax after administration",5 to 10 min
same,level at 5 min,[8],628 ng/mL
same,level at 10 min,[8],233 ng/mL
same,level at 20 min,[8],129 ng/mL
same,level at 40 min,[8],13.9 ng/mL
same,level at 1 h,[8],14.4 ng/mL
same,level at 1.5 h,[8],7.74 ng/mL
same,level at 5 min,[9],619 ng/mL
same,level at 10 min,[9],424 ng/mL
same,level at 20 min,[9],138 ng/mL
same,level at 40 min,[9],24.1 ng/mL
same,level at 1 h,[9],19.2 ng/mL
same,level at 1.5 h,[9],5.83 ng/mL
